For one compound, activity results are on record in paper PMC10504561 (Plant Communications, 2023).

Common to all, as to assay: LC-DAD of product
Common to all, as to type: biochemical
What all share (conditions): S-adenosyl-L-methionine co-substrate, pH 7.5, 28 °C, 2 h

For one test, the target named is T1, Gmγ-TMT2 (Glycine max, UniProt Q56GA2).
T1 sequence (Q56GA2 51-350): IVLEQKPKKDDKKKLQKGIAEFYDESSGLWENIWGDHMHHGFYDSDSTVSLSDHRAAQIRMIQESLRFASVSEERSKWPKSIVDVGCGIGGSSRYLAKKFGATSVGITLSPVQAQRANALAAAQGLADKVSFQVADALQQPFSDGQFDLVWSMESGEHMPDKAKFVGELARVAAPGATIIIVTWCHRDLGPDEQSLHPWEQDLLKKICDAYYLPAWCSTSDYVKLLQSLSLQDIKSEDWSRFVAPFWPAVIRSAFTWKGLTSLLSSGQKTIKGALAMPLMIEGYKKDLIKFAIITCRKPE

Another test addresses T2, Gmγ-TMT3 (Glycine max, UniProt A0A4D6BMW5).
T2 sequence (A0A4D6BMW5 1-302): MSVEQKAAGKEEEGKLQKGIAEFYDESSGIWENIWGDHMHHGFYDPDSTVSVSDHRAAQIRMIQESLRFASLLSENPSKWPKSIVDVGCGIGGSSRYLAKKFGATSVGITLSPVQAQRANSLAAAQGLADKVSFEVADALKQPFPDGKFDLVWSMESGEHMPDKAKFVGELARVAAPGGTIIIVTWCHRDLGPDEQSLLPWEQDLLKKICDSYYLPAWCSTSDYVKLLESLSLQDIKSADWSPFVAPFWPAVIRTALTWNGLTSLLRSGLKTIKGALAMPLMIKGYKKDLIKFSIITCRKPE

The next test concerns the target T3, Gmγ-TMT1 (Glycine max, UniProt A0A4D6BQA3).
T3 sequence (A0A4D6BQA3 1-296): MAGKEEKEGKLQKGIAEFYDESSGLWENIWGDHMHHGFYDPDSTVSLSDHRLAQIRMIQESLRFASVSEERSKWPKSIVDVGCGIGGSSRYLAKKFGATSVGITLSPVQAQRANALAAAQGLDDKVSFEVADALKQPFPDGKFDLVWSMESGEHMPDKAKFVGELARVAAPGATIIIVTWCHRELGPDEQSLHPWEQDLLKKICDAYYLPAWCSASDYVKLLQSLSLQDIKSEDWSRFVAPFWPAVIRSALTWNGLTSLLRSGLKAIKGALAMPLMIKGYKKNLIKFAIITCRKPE

Regarding `Cc1c(O)cc2c(c1C)O[C@](C)(CCC[C@H](C)CCC[C@H](C)CCCC(C)C)CC2` [γ-T], the activity entry is “Gmγ-TMT3 had three-fold higher activity toward γ-T than Gmγ-TMT1 and Gmγ-TMT2” on Gmγ-TMT2; “Gmγ-TMT3 had three-fold higher activity toward γ-T than Gmγ-TMT1 and Gmγ-TMT2” at Gmγ-TMT3; “Gmγ-TMT3 had three-fold higher activity toward γ-T than Gmγ-TMT1 and Gmγ-TMT2” at Gmγ-TMT1.
